Experimental data: PubChem BioAssay AID1963858 (Molecular Pharmacology Branch, DTP, NCI, 2024)

Test system: HOP-62 multicell spheroids with HUVEC/MSC, viability
Experiment: Anticancer human tumor HOP-62 cell line growth inhibition [KRAS2];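 note: viability read after a week of compound exposure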;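 for viability, T/C: 100% = DMSO vehicle-treated spheroids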
Conditions: for IC50: curve of first compound; for viability, T/C: stronger effect = lower value
Procedure, shortened: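 Combination screen of spheroid viability in tumor-cell co-cultures with endothelial (HUVEC) and mesenchymal stem cell stroma. Each agent was tested in half-log dilutions, topping at clinical Cmax or at 10 microM without a known Cmax.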

[1] = second compound 0.0316 µM, first compound 0.00316 µM
[2] = second compound 0.0316 µM, first compound 0.01 µM
[3] = second compound 0.0316 µM, first compound 0.0316 µM
[4] = second compound 0.0316 µM, first compound 0.1 µM
[5] = second compound 0.0316 µM, first compound 0.316 µM
[6] = second compound 0.0316 µM, first compound 1 µM
[7] = second compound 0.1 µM, first compound 0.00316 µM
[8] = second compound 0.1 µM, first compound 0.01 µM
[9] = second compound 0.1 µM, first compound 0.0316 µM
[10] = second compound 0.1 µM, first compound 0.1 µM
[11] = second compound 0.1 µM, first compound 0.316 µM
[12] = second compound 0.1 µM, first compound 1 µM
[13] = second compound 0.316 µM, first compound 0.00316 µM
[14] = second compound 0.316 µM, first compound 0.01 µM
[15] = second compound 0.316 µM, first compound 0.0316 µM
[16] = second compound 0.316 µM, first compound 0.1 µM
[17] = second compound 0.316 µM, first compound 0.316 µM
[18] = second compound 0.316 µM, first compound 1 µM
[19] = second compound 1 µM, first compound 0.00316 µM
[20] = second compound 1 µM, first compound 0.01 µM
[21] = second compound 1 µM, first compound 0.0316 µM
[22] = second compound 1 µM, first compound 0.1 µM
[23] = second compound 1 µM, first compound 0.316 µM
[24] = second compound 1 µM, first compound 1 µM
[25] = second compound 3.16 µM, first compound 0.00316 µM
[26] = second compound 3.16 µM, first compound 0.01 µM
[27] = second compound 3.16 µM, first compound 0.0316 µM
[28] = second compound 3.16 µM, first compound 0.1 µM
[29] = second compound 3.16 µM, first compound 0.316 µM
[30] = second compound 3.16 µM, first compound 1 µM

Structure (SMILES)	IC50 (second compound 0.0316 µM) [nM]	IC50 (second compound 0.1 µM) [nM]	IC50 (second compound 0.316 µM) [nM]	IC50 (second compound 1 µM) [nM]	IC50 (second compound 3.16 µM) [nM]	viability, T/C [1] [%]	viability, T/C [2] [%]	viability, T/C [3] [%]	viability, T/C [4] [%]	viability, T/C [5] [%]	viability, T/C [6] [%]	viability, T/C [7] [%]	viability, T/C [9] [%]	viability, T/C [10] [%]	viability, T/C [15] [%]	viability, T/C [16] [%]	viability, T/C [21] [%]	viability, T/C [22] [%]	viability, T/C [27] [%]	viability, T/C [28] [%]	further results
CCN1CCN(Cc2ccc(Nc3ncc(F)c(-c4cc(F)c5nc(C)n(C(C)C)c5c4)n3)nc2)CC1 + C=CC(=O)N1CCN(c2nc(OCC3CCCN3C)nc3c2CCN(c2cccc4cccc(C)c24)C3)CC1CC#N	422	58.2	17.2	< 3.16	< 3.16	91.3	83.8	64.1	65	52.4	42.9	65.6	54.7	43.8	51.3	38.4	37.3	37.1	1.14	0.26	viability, T/C [8]: 59.4%; viability, T/C [11]: 42.9%; viability, T/C [12]: 31.6%; viability, T/C [13]: 57.3%; viability, T/C [14]: 51.4%; viability, T/C [17]: 34.1%; viability, T/C [18]: 30.1%; viability, T/C [19]: 39.4%; viability, T/C [20]: 33.8%; viability, T/C [23]: 37.8%; viability, T/C [24]: 23.8%; viability, T/C [25]: 0.71%; viability, T/C [26]: 1.27%; viability, T/C [29]: 0.17%; viability, T/C [30]: 0.19%
CCNC(=O)CC1N=C(c2ccc(Cl)cc2)c2cc(OC)ccc2-n2c(C)nnc21 (stereo not given) + C=CC(=O)N1CCN(c2nc(OCC3CCCN3C)nc3c2CCN(c2cccc4cccc(C)c24)C3)CC1CC#N	168	37.4	437	< 31.6	< 31.6	–	–	82.8	62.3	34.6	33.2	–	51	43.6	95	95.4	33.2	24.5	0.58	0.37	viability, T/C (second compound 0.0316 µM, first compound 3.16 µM): 27.2%; viability, T/C (second compound 0.0316 µM, first compound 10 µM): 29.3%; viability, T/C [11]: 25.1%; viability, T/C [12]: 22.7%; viability, T/C (second compound 0.1 µM, first compound 3.16 µM): 18.2%; viability, T/C (second compound 0.1 µM, first compound 10 µM): 20.6%; viability, T/C [17]: 53.5%; viability, T/C [18]: 45.1%; viability, T/C (second compound 0.316 µM, first compound 3.16 µM): 41.5%; viability, T/C (second compound 0.316 µM, first compound 10 µM): 36.8%; viability, T/C [23]: 20.2%; viability, T/C [24]: 19.2%; viability, T/C (second compound 1 µM, first compound 3.16 µM): 16.4%; viability, T/C (second compound 1 µM, first compound 10 µM): 16.1%; viability, T/C [29]: 0.12%; viability, T/C [30]: 0.12%; viability, T/C (second compound 3.16 µM, first compound 3.16 µM): 0.39%; viability, T/C (second compound 3.16 µM, first compound 10 µM): 0.19%
Cn1ncnc1[C@H]1c2n[nH]c(=O)c3cc(F)cc(c23)N[C@@H]1c1ccc(F)cc1 + C=CC(=O)N1CCN(c2nc(OCC3CCCN3C)nc3c2CCN(c2cccc4cccc(C)c24)C3)CC1CC#N	> 100	9.86	< 0.316	< 0.316	< 0.316	82.3	75.7	74.3	59.7	–	–	74	41.9	44.7	30.6	33	24.8	22.1	0.51	0.71	viability, T/C (second compound 0.0316 µM, first compound 0.000316 µM): 88.8%; viability, T/C (second compound 0.0316 µM, first compound 0.001 µM): 79.7%; viability, T/C (second compound 0.1 µM, first compound 0.000316 µM): 64.6%; viability, T/C (second compound 0.1 µM, first compound 0.001 µM): 58.3%; viability, T/C [8]: 49.8%; viability, T/C (second compound 0.316 µM, first compound 0.000316 µM): 48.7%; viability, T/C (second compound 0.316 µM, first compound 0.001 µM): 42%; viability, T/C [13]: 40.6%; viability, T/C [14]: 38.5%; viability, T/C (second compound 1 µM, first compound 0.000316 µM): 32.4%; viability, T/C (second compound 1 µM, first compound 0.001 µM): 30.2%; viability, T/C [19]: 27.1%; viability, T/C [20]: 25.7%; viability, T/C (second compound 3.16 µM, first compound 0.000316 µM): 0.61%; viability, T/C (second compound 3.16 µM, first compound 0.001 µM): 0.57%; viability, T/C [25]: 0.44%; viability, T/C [26]: 0.5%
